Measured values from patent US10294218B2 (VIROSTATICS SRL, priority 2012, dated 2019).
Where a name gives a salt, the structure may show the parent alone. Read-outs that look alike come from different tables or passages of the source.

How the values were obtained:
Primary T cells [1] = test: Cytotoxicity, percentage of viable cells by flow cytometry; assay type: cell-based; conditions: viability
Procedure: Primary T cells are cultured and treated with different concentrations of the test compound. Viability is analysed by measuring through flow cytometry based techniques the percentage of viable cells, compared to untreated control=100%).
(§1) In Tables 2, 3 and 4, ND means Not Determined.

[2] = test system: laboratory strain of HIV-1; test: Antiviral activity against HIV (AV), p24 in infected activated primary T cells; assay type: cell-based; conditions: for IC50: read-out: AV50 (Inhibitory concentration 50% for antiviral activity); for antiviral and antiproliferative activity and cytotoxicity profile (in words): summary of AV, AP and cytotoxicity assays; for anti-HIV and cytotoxicity profile (in words): summary of AV and cytotoxicity assays
Procedure: Activated primary T cells are infected with a laboratory strain of HIV-1, then cultured and exposed to different concentrations of the test compounds. HIV replication is analysed by measuring the viral protein p24 and expressed as percentage of untreated control. Inhibition of viral replication (AV) is then calculated (AV=100 minus the % p24 compared to control, AV of control=0%). Inhibitory concentration 50% for antiviral activity (AV50) is calculated.
as §1

Primary T cells [3] = test: Antiproliferative activity (AP), mitotic index by flow cytometry; assay type: cell-based; conditions: read-out: AP50 (Inhibitory concentration 50% for antiproliferative capacity)
Procedure: Primary T cells are cultured and exposed to different concentrations of the test compounds. Cell proliferation is analysed by measuring mitotic index (ie the number of cell divisions a population of cells undergoes) through flow cytometry based techniques. Mitotic index is expressed as percentage of untreated control. Inhibition of cell proliferation (AP) is then calculated (AP=100 minus % mitotic index compared to control, AP of control=0%). Inhibitory concentration 50% for antiproliferative capacity (AP50) is calculated.
as §1

[4] = biological target: human CDK9/CyclinT kinase complex (Homo sapiens (Human), UniProt P50750); test: In vitro CDK9/CyclinT assay (IMAP fluorescent polarization); assay type: biochemical
Procedure: The activity of the compounds described in the present invention can be determined by measuring the phosphorylation of a fluorescently-labeled peptide by human CDK9/CyclinT kinase complex by fluorescent polarization using a commercially available IMAP Screening Express Assay Kit (Molecular devices).
Test compounds were diluted in 100% DMSO to 5 mM stock concentration, then further dilutions were made in H2O or 100% DMSO to desirable concentrations.
Each reaction consisted of 5 nM enzyme: CDK9/CyclinT (Proqinase cat#0371-0345-1), 400 nM TAMRA-Rbtide (synthetic 15-mer peptide derived from human retinoblastoma tumor suppressor protein labeled with TAMRA dye, Genecust Europe), 12 μM ATP (=Kmapp, Sigma-Aldrich) and kinase buffer: 20 mM MOPS pH 7 (Sigma-Aldrich), 1 mM DTT (Sigma-Aldrich), 10 mM MgCl2 (Sigma-Aldrich), 0.01% Tween 20 (Sigma-Aldrich).
For each reaction, 4 or 6 μl containing TAMRA-Rbtide, ATP and kinase buffer were combined with 2 μl diluted compound in H2O or 0.028 μl compound in 100% DMSO. The kinase reaction was started by the addition of 2 μl diluted enzyme. The reaction was allowed to run for 1 hour at room temperature. The reaction was stopped by adding 15 μl IMAP beads (1:400 beads in progressive (100% buffer A) 1× buffer).

[5] = Human immunodeficiency virus 1, T-cell
[6] = T-cell, primary T cells, mitotic index

Sequence of human CDK9/CyclinT kinase complex (P50750 whole entry): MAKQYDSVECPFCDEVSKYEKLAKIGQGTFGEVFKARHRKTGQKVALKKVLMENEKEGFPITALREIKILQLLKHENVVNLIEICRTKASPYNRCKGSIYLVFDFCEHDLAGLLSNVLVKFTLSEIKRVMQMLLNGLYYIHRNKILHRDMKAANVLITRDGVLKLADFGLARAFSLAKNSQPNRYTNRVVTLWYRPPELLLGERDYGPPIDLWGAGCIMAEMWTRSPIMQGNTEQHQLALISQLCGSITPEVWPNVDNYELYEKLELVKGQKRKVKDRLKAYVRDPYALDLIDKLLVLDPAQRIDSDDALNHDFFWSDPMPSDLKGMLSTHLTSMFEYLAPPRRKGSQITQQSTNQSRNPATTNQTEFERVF
Sequence of human CDK9/CyclinT kinase complex (O60563 whole entry partner): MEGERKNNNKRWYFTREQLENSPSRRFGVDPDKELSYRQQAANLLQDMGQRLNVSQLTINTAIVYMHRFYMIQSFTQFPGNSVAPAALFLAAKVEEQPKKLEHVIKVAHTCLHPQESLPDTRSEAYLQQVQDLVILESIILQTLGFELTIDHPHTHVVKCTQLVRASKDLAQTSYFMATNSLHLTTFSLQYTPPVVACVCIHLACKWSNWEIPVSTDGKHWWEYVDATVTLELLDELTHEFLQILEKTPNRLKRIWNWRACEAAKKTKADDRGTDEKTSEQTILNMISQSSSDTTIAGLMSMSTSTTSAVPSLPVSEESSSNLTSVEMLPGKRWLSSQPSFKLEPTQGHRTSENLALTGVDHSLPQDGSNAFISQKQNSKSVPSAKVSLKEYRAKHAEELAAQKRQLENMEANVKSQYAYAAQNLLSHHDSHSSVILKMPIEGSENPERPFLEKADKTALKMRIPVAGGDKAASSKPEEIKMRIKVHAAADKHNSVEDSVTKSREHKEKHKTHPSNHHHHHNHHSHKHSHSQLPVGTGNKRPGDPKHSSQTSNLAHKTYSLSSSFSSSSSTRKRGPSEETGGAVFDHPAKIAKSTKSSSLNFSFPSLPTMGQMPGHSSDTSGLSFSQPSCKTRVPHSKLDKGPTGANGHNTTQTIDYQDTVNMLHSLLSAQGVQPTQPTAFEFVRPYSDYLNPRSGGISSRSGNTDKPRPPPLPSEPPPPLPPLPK

Row | Compound | TD50 (Toxic dose 50%) (Primary T cells [1]) [µM] | IC50 [2, 5] [nM] | IC50 (Primary T cells [3]; T-cell) [nM] | antiviral and antiproliferative activity and cytotoxicity profile (in words) [2] | also measured
1 | COc1ccccc1-c1cc(Nc2ccc(Cl)c(CN3C(=O)c4ccccc4C3=O)c2)ncn1 [Example 20, 2-(2-Chloro-5-(6-(2-methoxyphenyl)pyrimidin-4-ylamino)benzyl)isoindoline-1,3-dione] | >0.5 | > 1500 | > 500 | – | –
2 | COc1ccc(Nc2cc(-c3ccc(F)cc3OC)ncn2)cc1OC(C)=O [Example 126, Acetic Acid 5-[6-(4-fluoro-2-methoxy-phenyl)-pyrimidin-4-ylamino]-2-methoxy-phenyl Ester] | >2 | 100 | – | – | –
3 | COc1ccc(Nc2cc(-c3ccccc3OC)ncn2)cc1NC(=O)OCC(Cl)(Cl)Cl [Example 27, 2,2,2-Trichloroethyl 2-methoxy-5-(6-(2-methoxyphenyl)pyrimidin-4-ylamino)phenylcarbamate] | >0.5 | > 500 | > 500 | – | –
4 | COc1ccccc1-c1cc(Nc2ccc(N(C)C)cc2)ncn1 [Example 5, N^1-(6-(2-methoxyphenyl)pyrimidin-4-yl)-N^4,N^4-dimethylbenzene-1,4-diamine] | >10 | 300 | 150 | good antiviral and antiproliferative activity and a good cytotoxicity profile | –
5 | COc1ccc(Nc2cc(-c3ccc(F)cc3OC)ncn2)cc1NC(C)=O [Example 117, N-{5-[6-(4-Fluoro-2-methoxy-phenyl)-pyrimidin-4-ylamino]-2-methoxy-phenyl}-acetamide] | >2 | 200 | – | – | –
6 | COC(=O)Nc1cc(Nc2cc(-c3ccc(F)cc3OC)ncn2)ccc1OC [Example 118, {5-[6-(4-Fluoro-2-methoxy-phenyl)-pyrimidin-4-ylamino]-2-methoxy-phenyl}-carbamic Acid Methyl Ester] | >2 | 1500 | – | – | –
7 | COc1ccc(Nc2cc(-c3ccccc3OC)ncn2)cc1OCCN1CCOCC1 [Example 8, N-(4-Methoxy-3-(2-morpholinoethoxy)phenyl)-6-(2-methoxyphenyl)pyrimidin-4-amine] | >1.5 | 400 | > 1500 | – | –
8 | CNCc1cc(Nc2cc(-c3ccccc3OC)ncn2)ccc1OC [Example 37, N-(4-Methoxy-3-((methylamino)methyl)phenyl)-6-(2-methoxyphenyl)pyrimidin-4-amine] | 2 | – | – | – | IC50 ([2]; HIV-1 infected activated primary T cells, p24): > 1500 nM; IC50 (Primary T cells [3]; primary T cells, mitotic index): 2000 nM
9 | CCOc1ccc(F)cc1-c1cc(Nc2cc(F)c(OC)c(C(N)=O)c2)ncn1 [Example 142, 5-[6-(2-Ethoxy-5-fluoro-phenyl)-pyrimidin-4-ylamino]-3-fluoro-2-methoxy-benzamide] | – | 40 | 40 | good antiviral and antiproliferative activity and a good cytotoxicity profile | –
10 | COc1ccc(Nc2cc(-c3ccccc3OC)ncn2)cc1C(=O)N(C)N [Example 46, 2-Methoxy-5-[6-(2-methoxy-phenyl)-pyrimidin-4-ylamino]-benzoic acid N-methyl-hydrazide] | >10 | 5000 | – | – | –
11 | COc1ccc(Nc2cc(-c3cc(F)ccc3OC)ncn2)cc1C(N)=O [Example 127, 5-[6-(5-Fluoro-2-methoxy-phenyl)-pyrimidin-4-ylamino]-2-methoxy-benzamide] | – | 3 | < 80 | good antiviral and antiproliferative activity and a good cytotoxicity profile | –
12 | COc1ccc(Nc2cc(-c3ccccc3OC)ncn2)cc1C(N)=O [Example 45, 2-methoxy-5-(6-(2-methoxyphenyl)pyrimidin-4-ylamino)benzamide] | – | 50 | 80 | good antiviral and antiproliferative activity and a good cytotoxicity profile | –
13 | COc1ccc(Nc2cc(-c3ccccc3OC)ncn2)cc1C(=O)NCc1ccccc1 [Example 23, N-Benzyl-2-methoxy-5-(6-(2-methoxyphenyl)pyrimidin-4-ylamino)benzamide] | – | > 500 | > 500 | – | –
14 | COc1ccccc1-c1cc(Nc2ccc(Cl)c(O)c2)ncn1 [Example 107, 2-Chloro-5-[6-(2-methoxy-phenyl)-pyrimidin-4-ylamino]-phenol Hydrochloride] | – | – | – | – | IC50 [4]: < 1000 nM
15 | COc1ccc(Nc2cc(-c3cc(F)ccc3OC)ncn2)cc1N [Example 75, N^1-[6-(5-Fluoro-2-methoxy-phenyl)-pyrimidin-4-yl]-4-methoxy-benzene-1,3-diamine] | – | 10 | – | good antiviral and antiproliferative activity and a good cytotoxicity profile | IC50 (Primary T cells [3]; [6]): < 80 nM
16 | COc1ccccc1-c1cc(Nc2ccc(Cl)c(Cn3cnc4ccccc43)c2)ncn1 [Example 16, N-(3-((1H-benzo[d]imidazol-1-yl)methyl)-4-chlorophenyl)-6-(2-methoxyphenyl)pyrimidin-4-amine] | – | 110 | 100 | good antiviral and antiproliferative activity and a good cytotoxicity profile | –
17 | COc1cc(F)c(Nc2cc(-c3ccccc3OC)ncn2)cc1C(N)=O [Example 143, 4-Fluoro-2-methoxy-5-[6-(2-methoxy-phenyl)-pyrimidin-4-ylamino]-benzamide] | – | 16 | > 80 | good antiviral and antiproliferative activity and a good cytotoxicity profile | –
18 | CNS(=O)(=O)Nc1cc(Nc2cc(-c3ccccc3OC)ncn2)ccc1OC [Example 10, (2-Methoxy-5-(6-(2-methoxyphenyl)pyrimidin-4-ylamino)phenyl)(methylsulfamoyl)amine] | – | 800 | – | good antiviral and antiproliferative activity and a good cytotoxicity profile | IC50 (Primary T cells [3]; [6]): 500 nM
19 | COc1ccc(Nc2cc(-c3ccccc3OC)ncn2)cc1F [Example 22, N-(3-Fluoro-4-methoxyphenyl)-6-(2-methoxyphenyl)pyrimidin-4-amine] | – | < 1500 | – | – | IC50 (Primary T cells [3]; [6]): > 500 nM
20 | COc1ccc(Nc2cc(-c3ccccc3OC)ncn2)cc1OCc1ccccc1 [Example 36, N-(3-(Benzyloxy)-4-methoxyphenyl)-6-(2-methoxyphenyl)pyrimidin-4-amine] | >5 | – | > 5000 | – | –
21 | COC(=O)c1cc(Nc2cc(-c3ccccc3OC)ncn2)ccc1OC [Example 30, Methyl 2-methoxy-5-(6-(2-methoxyphenyl)pyrimidin-4-ylamino)benzoate] | – | > 1500 | – | – | IC50 (Primary T cells [3]; [6]): > 500 nM
22 | CN1CC[C@H](c2c(O)cc(O)c3c(=O)cc(-c4ccccc4Cl)oc23)[C@H](O)C1 [Flavopiridol, reference compound] | – | – | – | – | IC50 ([2]; Human immunodeficiency virus 1, T-cell, HIV-1 infected activated primary T cells, p24): 100 nM; anti-HIV and cytotoxicity profile (in words) [2]: poor anti-HIV and cytotoxicity profile; IC50 (Primary T cells [3]; [6]): 30 nM
23 | CC[C@H](CO)Nc1nc(NCc2ccccc2)c2ncn(C(C)C)c2n1 [Roscovitine, reference compound] | 8 | – | – | – | anti-HIV and cytotoxicity profile (in words) [2]: poor anti-HIV and cytotoxicity profile
24 | COc1ccc(Nc2cc(-c3ccccc3OC)ncn2)cc1CN1C(=O)c2ccccc2C1=O [Example 3, 2-(2-Methoxy-5-(6-(2-methoxyphenyl)pyrimidin-4-ylamino)benzyl)isoindoline-1,3-dione] | >5 | – | > 1000 | – | –
25 | COc1ccccc1-c1cc(Nc2ccc(Cl)c(CO)c2)ncn1 [Example 6, (2-Chloro-5-(6-(2-methoxyphenyl)pyrimidin-4-ylamino)phenyl)methanol] | – | > 1500 | – | – | IC50 (Primary T cells [3]; [6]): > 500 nM
26 | COc1ccccc1-c1cc(Nc2ccc(N(C)C)c(F)c2)ncn1 [Example 106, 2-Fluoro-N^4-[6-(2-methoxy-phenyl)-pyrimidin-4-yl]-N^1,N^1-dimethyl-benzene-1,4-diamine Hydrochloride] | – | – | – | – | IC50 [4]: < 1000 nM
